Test results from PubChem BioAssay (NCI).
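Tested at 5 concentrations; 48 h exposure; 96-well plates; endpoints linearly interpolated, else capped at highest concentration. The concentration for full growth arrest is given as TGI.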

Assays:
Experiment in all cases: DTP human tumour cell line panel, 48 h
[1] = test system: SNB-19 CNS
[2] = test system: SK-OV-3 ovarian
[3] = test system: OVCAR-3 ovarian
[4] = test system: UO-31 renal
[5] = test system: CAKI-1 renal
[6] = test system: SF-539 CNS
[7] = test system: TK-10 renal
[8] = test system: NCI/ADR-RES ovarian
[9] = test system: UACC-257 melanoma
[10] = test system: A498 renal
[11] = test system: RPMI-8226 leukemia
[12] = test system: LOX IMVI melanoma
[13] = test system: U251 CNS
[14] = test system: T-47D breast
[15] = test system: MOLT-4 leukemia
[16] = test system: SK-MEL-28 melanoma
[17] = test system: SF-295 CNS
[18] = test system: MCF7 breast
[19] = test system: M14 melanoma
[20] = test system: COLO 205 colon
[21] = test system: SW-620 colon
[22] = test system: MDA-N
[23] = test system: RXF 393 renal
[24] = test system: OVCAR-8 ovarian
[25] = test system: HCT-116 colon
[26] = test system: NCI-H226 lung
[27] = test system: KM12 colon
[28] = test system: HT29 colon
[29] = test system: SNB-75 CNS
[30] = test system: UACC-62 melanoma
[31] = test system: 786-0 renal
[32] = test system: CCRF-CEM leukemia
[33] = test system: SN12C renal
[34] = test system: PC-3 prostate
[35] = test system: BT-549 breast
[36] = test system: HL-60(TB) leukemia
[37] = test system: HS 578T breast
[38] = test system: SK-MEL-5 melanoma
[39] = test system: OVCAR-4 ovarian
[40] = test system: DU-145 prostate
[41] = test system: SR leukemia
[42] = test system: ACHN renal
[43] = test system: HCT-15 colon
[44] = test system: IGROV1 ovarian
[45] = test system: NCI-H23 lung
[46] = test system: MDA-MB-435
[47] = test system: EKVX NSCLC
[48] = test system: OVCAR-5 ovarian
[49] = test system: A549 NSCLC
[50] = test system: SF-268 CNS
[51] = test system: MDA-MB-231 breast
[52] = test system: HOP-62 NSCLC
[53] = test system: K-562 leukemia
[54] = test system: NCI-H460 lung
[55] = test system: HOP-92 NSCLC
[56] = test system: MALME-3M melanoma
[57] = test system: HCC-2998 colon
[58] = test system: NCI-H522 lung
[59] = test system: SK-MEL-2 melanoma

For C#C[C@]1(O)CC[C@H]2[C@@H]3CCC4=C/C(=N\OCCN5CCCC5)CC[C@]4(C)[C@H]3CC[C@@]21C, the TGI [1] was 32.2 µM, the TGI [2] was 54.6 µM and the TGI [3] was 27.1 µM. It also gave a TGI [4] of 32.9 µM, a TGI [5] of 39.1 µM and a TGI [6] of 28.2 µM. It also gave a TGI [7] of 38.3 µM, a TGI [8] of 31.5 µM and a TGI [9] of 22.9 µM. For the same compound, the TGI [10] was 50.4 µM, the TGI [11] was 13.2 µM and the TGI [12] was 33 µM. The TGI [13] was greater than 49.4 µM, the TGI [14] was 60.4 µM and the TGI [15] was 17.9 µM. It also gave a TGI [16] of 44.6 µM, a TGI [17] of 14.5 µM and a TGI [18] of 21.5 µM. It also gave a TGI [19] of 22.5 µM, a TGI [20] of 43.1 µM and a TGI [21] greater than 49.5 µM. The TGI [22] was 11.3 µM, the TGI [23] was greater than 39.9 µM and the TGI [24] was 40.7 µM. The TGI [25] was 28.7 µM, the TGI [26] was 55.5 µM and the TGI [27] was 19.6 µM. For the same compound, the TGI [28] was 29.7 µM, the TGI [29] was 24.7 µM and the TGI [30] was 27.5 µM. The TGI [31] was 24.4 µM, the TGI [32] was 51.6 µM and the TGI [33] was 43.7 µM. For the same compound, the TGI [34] was 32.6 µM, the TGI [35] was 43.6 µM and the TGI [36] was 8.57 µM. For the same compound, the TGI [37] was 21.7 µM, the TGI [38] was 15.4 µM and the TGI [39] was greater than 62.1 µM. The TGI [40] was 41 µM, the TGI [41] was 13.3 µM and the TGI [42] was 47.2 µM. The TGI [43] was 35 µM, the TGI [44] was 23.2 µM and the TGI [45] was 31.3 µM. It also gave a TGI [46] of 15 µM, a TGI [47] of 38.1 µM and a TGI [48] of 50.3 µM. The TGI [49] was greater than 59.8 µM, the TGI [50] was 30.1 µM and the TGI [51] was 36.2 µM. It also gave a TGI [52] of 26.7 µM, a TGI [53] greater than 39.2 µM and a TGI [54] of 40.6 µM. For the same compound, the TGI [55] was greater than 100 µM, the TGI [56] was 23.4 µM and the TGI [57] was 34.5 µM. For the same compound, the TGI [58] was 12 µM and the TGI [59] was 24.4 µM.
